US8580762B2, “Substituted purine and 7-deazapurine compounds” (Epizyme, Inc., priority 2010, dated 2013)

Target: DOT1L(1-416) (Homo sapiens, UniProt Q8TEK3)
Assay: Determination of IC50: DOT1L(1-416) methyltransferase assay, 3H-SAM, oligonucleosome substrate, Flashplate
Format: biochemical
Conditions: class symbols; read-out: DOT1L IC50
In short: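 Compounds in 10-point 3-fold DMSO dilutions were tested in reactions started with substrate mix of 200 nM [3H]-SAM, 600 nM unlabeled SAM and 20 nM oligonucleosome. Reactions ran 120 min at room temperature and were quenched with 100 μM SAM. Labeled substrate was captured on streptavidin Flashplates and counted by scintillation to give IC50.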

Sequence of DOT1L(1-416) (Q8TEK3 1-416): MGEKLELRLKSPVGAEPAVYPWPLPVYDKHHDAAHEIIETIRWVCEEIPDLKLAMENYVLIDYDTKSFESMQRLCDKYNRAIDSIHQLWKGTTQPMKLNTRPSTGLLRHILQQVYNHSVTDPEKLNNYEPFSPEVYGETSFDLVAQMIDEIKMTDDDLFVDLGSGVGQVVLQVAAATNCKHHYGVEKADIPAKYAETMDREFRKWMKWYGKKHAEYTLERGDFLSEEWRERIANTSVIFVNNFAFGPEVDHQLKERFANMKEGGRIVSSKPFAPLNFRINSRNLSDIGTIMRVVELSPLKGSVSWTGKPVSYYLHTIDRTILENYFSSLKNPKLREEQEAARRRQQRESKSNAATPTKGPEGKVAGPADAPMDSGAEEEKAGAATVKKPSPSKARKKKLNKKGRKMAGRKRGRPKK

IC50 [nM] | SMILES
< 100 | CC(C)(C)c1ccc2[nH]c(CC[C@H]3C[C@H](N(C[C@H]4C[C@@H](n5ccc6c(N)ncnc65)[C@H](O)[C@@H]4O)C4CCC4)C3)nc2c1 [Compound 51, (1R,2S,3R,5R)-3-(4-amino-7H-pyrrolo[2,3-d]pyrimidin-7-yl)-5-((((1s,3R)-3-(2-(5-(tert-butyl)-1H-benzo[d]imidazol-2-yl)ethyl)cyclobutyl)(cyclobutyl)amino)methyl)cyclopentane-1,2-diol]
< 100 | CC(C)(C)c1ccc2[nH]c(CC[C@H]3C[C@H](N(CC4CCC4)C[C@H]4C[C@@H](n5ccc6c(N)ncnc65)[C@H](O)[C@@H]4O)C3)nc2c1 [Compound 59, (1R,2S,3R,5R)-3-(4-amino-7H-pyrrolo[2,3-d]pyrimidin-7-yl)-5-((((1s,3R)-3-(2-(5-(tert-butyl)-1H-benzo[d]imidazol-2-yl)ethyl)cyclobutyl)(cyclobutylmethyl)amino)methyl)cyclopentane-1,2-diol]
< 100 | CN(C[C@H]1O[C@@H](n2cnc3c(N)ncnc32)[C@H](O)[C@@H]1O)[C@H]1C[C@@H](CCc2nc3cc(C4(C#N)CC4)ccc3[nH]2)C1 [Compound 137, 1-(2-(2-((1S,3r)-3-((((2R,3S,4R,5R)-5-(6-amino-9H-purin-9-yl)-3,4-dihydroxytetrahydro-furan-2-yl)methyl)(methyl)amino)cyclobutyl)ethyl)-1H-benzo[d]imidazol-5-yl)cyclo-propanecarbonitrile]
< 100 | CC(C)N(C[C@H]1C[C@@H](n2ccc3c(N)ncnc32)[C@H](O)[C@@H]1O)[C@H]1C[C@@H](CCc2nc3cc(OC(F)(F)F)ccc3[nH]2)C1 [Compound 60, (1R,2S,3R,5R)-3-(4-amino-7H-pyrrolo[2,3-d]pyrimidin-7-yl)-5-((isopropyl((1r,3S)-3-(2-(5-(trifluoromethoxy)-1H-benzo[d]imidazol-2-yl)ethyl)cyclobutyl)amino)methyl)cyclopentane-1,2-diol]
< 100 | CCN(C[C@H]1C[C@@H](n2ccc3c(N)ncnc32)[C@H](O)[C@@H]1O)[C@H]1C[C@@H](CCc2nc3cc(C(C)(C)C)ccc3[nH]2)C1 [Compound 38, (1R,2S,3R,5R)-3-(4-amino-7H-pyrrolo[2,3-d]pyrimidin-7-yl)-5-((((1r,3S)-3-(2-(5-(tert-butyl)-1H-benzo[d]imidazol-2-yl)ethyl)cyclobutyl)(ethyl)amino)methyl)cyclopentane-1,2-diol]
< 100 | CC(C)N(C[C@H]1O[C@@H](n2cnc3c(N)ncnc32)[C@H](O)[C@@H]1O)[C@H]1C[C@@H](CCc2nc3cc(C4CCC4)ccc3[nH]2)C1 [Compound 115, (2R,3R,4S,5R)-2-(6-amino-9H-purin-9-yl)-5-((((1r,3S)-3-(2-(5-cyclobutyl-1H-benzo[d]imidazol-2-yl)ethyl)cyclobutyl) (isopropyl)amino)methyl)tetrahydrofuran-3,4-diol]
< 100 | CN(C[C@H]1C[C@@H](n2ccc3c(N)ncnc32)[C@H](O)[C@@H]1O)[C@H]1C[C@@H](CCc2nc3cc(Cl)c(Cl)cc3[nH]2)C1 [Compound 52, (1R,2S,3R,5R)-3-(4-amino-7H-pyrrolo[2,3-d]pyrimidin-7-yl)-5-((((1r,3S)-3-(2-(5,6-dichloro-1H-benzo[d]imidazol-2-yl)ethyl)cyclobutyl)(methyl)amino)methyl)cyclopentane-1,2-diol]
< 100 | CN(C[C@H]1O[C@@H](n2cnc3c(N)ncnc32)[C@H](O)[C@@H]1O)[C@H]1C[C@@H](CCc2nc3cc(C4(C)CCC4)ccc3[nH]2)C1 [Compound 30, (2R,3R,4S,5R)-2-(6-amino-9H-purin-9-yl)-5-((methyl((1r,3S)-3-(2-(5-(1-methylcyclobutyl)-1H-benzo[d]imidazol-2-yl)ethyl)cyclobutyl)amino)methyl)tetrahydrofuran-3,4-diol]
100 to 1000 | CC(C)(C)c1ccc2[nH]c(CCC3CC(N(C[C@H]4O[C@@H](n5cnc6c(N)ncnc65)[C@H](O)[C@@H]4O)CC(F)(F)F)C3)nc2c1 (stereo partly drawn) [Compound 82, (2R,3R,45,5R)-2-(6-amino-9H-purin-9-yl)-5-(((3-(2-(5-(tert-butyl)-1H-benzo[d]imidazol-2-yl)ethyl)cyclobutyl) (2,2,2-trifluoroethyl)amino)methyl)tetrahydrofuran-3,4-diol]
< 100 | CC(C)N(C[C@H]1O[C@@H](n2cnc3c(N)ncnc32)[C@H](O)[C@@H]1O)[C@H]1C[C@H](CCc2nc3cc(C(C)(C)C#N)ccc3[nH]2)C1 [Compound 129, 2-(2-(2-((1R,3s)-3-((((2R,3S,4R,5R)-5-(6-amino-9H-purin-9-yl)-3,4-dihydroxytetrahydro-furan-2-yl)methyl)(isopropyl)amino)cyclobutyl)ethyl)-1H-benzo[d]imidazol-5-yl)-2-methylpropanenitrile]
< 100 | CC(C)N(C[C@H]1O[C@@H](n2cnc3c(N)ncnc32)[C@H](O)[C@@H]1O)C1CC(CCc2nc3cc(C(C)(C)C#N)ccc3[nH]2)C1 (stereo partly drawn) [Compound 120, 2-(2-(2-(3-((((2R,3S,4R,5R)-5-(6-amino-9H-purin-9-yl)-3,4-dihydroxytetrahydro-furan-2-yl)methyl)(isopropyl)amino)cyclobutyl)ethyl)-1H-benzo[d]imidazol-5-yl)-2-methylpropanenitrile]
< 100 | CN(C[C@H]1O[C@@H](n2cnc3c(N)ncnc32)[C@H](O)[C@@H]1O)C1CC(CNC(=O)Nc2ccc(C(C)(C)C)cc2)C1 (stereo partly drawn) [Compound 110, 1-((3-((((2R,3S,4R,5R)-5-(6-amino-9H-purin-9-yl)-3,4-dihydroxytetrahydrofuran-2-yl)methyl)(methyl)amino)cyclobutyl)methyl)-3-(4-(tert-butyl)phenyl)urea]
100 to 1000 | CN(C[C@@H]1C[C@@H](O)[C@H](n2ccc3c(N)ncnc32)C1)[C@H]1C[C@@H](CCc2nc3cc(Cl)c(C(F)(F)F)cc3[nH]2)C1 [Compound 81, (1R,2R,4S)-2-(4-amino-7H-pyrrolo[2,3-d]pyrimidin-7-yl)-4-((((1r,3R)-3-(2-(5-chloro-6-(trifluoromethyl)-1H-benzo[d]imidazol-2-yl)ethyl)cyclobutyl) (methyl)amino)methyl) cyclopentanol]
100 to 1000 | CC(C)N(C[C@@H]1C[C@@H](O)[C@H](n2ccc3c(N)ncnc32)C1)[C@H]1C[C@@H](CCc2nc3cc(C(C)(C)C)ccc3[nH]2)C1 [Compound 101, (1R,2R,4S)-2-(4-amino-7H-pyrrolo[2,3-d]pyrimidin-7-yl)-4-((((1r,3R)-3-(2-(5-(tert-butyl)-1H-benzo[d]imidazol-2-yl)ethyl)cyclobutyl) (isopropyl)amino)methyl)cyclopentanol]
1000 to 10000 | CC(C)N(C[C@@H]1C[C@@H](O)[C@H](n2ccc3c(N)ncnc32)C1)C1CC(CCc2nc3cc(Cl)c(C(F)(F)F)cc3[nH]2)C1 (stereo partly drawn) [Compound 84, (1R,2R,4S)-2-(4-amino-7H-pyrrolo[2,3-d]pyrimidin-7-yl)-4-(((3-(2-(5-chloro-6-(trifluoromethyl)-1H-benzo[d]imidazol-2-yl)ethyl)cyclobutyl) (isopropyl)amino)methyl)cyclopentanol]
< 100 | CN(C[C@H]1O[C@@H](n2cnc3c(N)ncnc32)[C@H](O)[C@@H]1O)[C@H]1C[C@H](CCc2nc3cc(C(C)(C)C)ccc3[nH]2)C1 [Compound 72, (2R,3R,4S,5R)-2-(6-amino-9H-purin-9-yl)-5-((((1s,3R)-3-(2-(5-(tert-butyl)-1H-benzo[d]imidazol-2-yl)ethyl)cyclobutyl)(methyl)amino)methyl)tetrahydrofuran-3,4-diol]
10000 to 50000 | CN(C[C@@H]1C[C@@H](O)[C@H](n2ccc3c(N)ncnc32)C1)[C@H]1C[C@H](CCc2nc3cc(Cl)c(C(F)(F)F)cc3[nH]2)C1 [Compound 85, (1R,2R,4S)-2-(4-amino-7H-pyrrolo[2,3-d]pyrimidin-7-yl)-4-((((1s,3S)-3-(2-(5-chloro-6-(trifluoromethyl)-1H-benzo[d]imidazol-2-yl)ethyl)cyclobutyl) (methyl)amino)methyl) cyclopentanol]

SMILES | IC50 [nM]
CN(C[C@H]1O[C@@H](n2cnc3c(N)ncnc32)[C@H](O)[C@@H]1O)[C@H]1C[C@@H](CCc2nc3cc(C4CCC4)ccc3[nH]2)C1 [Compound 131, (2R,3R,4S,5R)-2-(6-amino-9H-purin-9-yl)-5-((((1r,3S)-3-(2-(5-cyclobutyl-1H-benzo[d]imidazol-2-yl)ethyl)cyclobutyl) (methyl)amino)methyl) tetrahydrofuran-3,4-diol] | < 100
CC(C)(C)c1ccc2[nH]c(CC[C@H]3C[C@@H](N(C[C@H]4O[C@@H](n5cnc6c(N)ncnc65)[C@H](O)[C@@H]4O)CC(F)(F)F)C3)nc2c1 [Compound 102, (2R,3R,4S,5R)-2-(6-amino-9H-purin-9-yl)-5-((((1r,3S)-3-(2-(5-(tert-butyl)-1H-benzo[d]imidazol-2-yl)ethyl)cyclobutyl) (2,2,2-trifluoroethyl)amino)methyl)tetrahydrofuran-3,4-diol] | 100 to 1000
CC(C)N(C[C@H]1O[C@@H](n2cnc3c(N)ncnc32)[C@H](O)[C@@H]1O)[C@H]1C[C@H](CCc2nc3cc(C4(C)CCC4)ccc3[nH]2)C1 [Compound 31, (2R,3R,4S,5R)-2-(6-amino-9H-purin-9-yl)-5-((isopropyl((1s,3R)-3-(2-(5-(1-methylcyclobutyl)-1H-benzo[d]imidazol-2-yl)ethyl)cyclobutyl)amino)methyl)tetrahydrofuran-3,4-diol] | < 100
CN(C[C@H]1O[C@@H](n2cnc3c(N)ncnc32)[C@H](O)[C@@H]1O)[C@H]1C[C@@H](CCc2nc3cc(OC(F)(F)F)ccc3[nH]2)C1 [Compound 96, (2R,3R,4S,5R)-2-(6-amino-9H-purin-9-yl)-5-((methyl((1r,3S)-3-(2-(5-(trifluoromethoxy)-1H-benzo[d]imidazol-2-yl)ethyl)cyclobutyl)amino)methyl)tetrahydrofuran-3,4-diol] | < 100
